Assay results from patent US10167292B2, “Benzodiazepines as bromodomain inhibitors” (Catalyst Therapeutics Pty Ltd, priority 2015, dated 2019).

How the values were obtained:
BRD-2 (Domain 1) = BRD-2 (Domain 1) (Homo sapiens (Human), UniProt P25440); assay: AlphaScreen BRD binding assay, BRD-2 (Domain 1); conditions: acetyl-histone H4 peptide 2.5 nM, protein 80 nM
Experimental: (§1) Biological Characterization Assay Conditions Binding Assay
(§2) AlphaScreen streptavidin donor beads and AlphaScreen nickel chelate acceptor beads were added to a final concentration of 10 ug/mL each and allowed to incubate in a darkened environment for 1 h at RT. Plates were read on an EnVision plate reader (Perkin Elmer) and IC50's calculated using a four parameter non-linear curve fit.

BRD-2 (Domain 2) = BRD-2 (Domain 2) (Homo sapiens (Human), UniProt P25440); assay: AlphaScreen BRD binding assay, BRD-2 (Domain 2); conditions: 160 nM protein and 1.25 nM peptide
Experimental: as §1, §2

HL-60 = assay: Cell proliferation assay (CellTiter-Glo), HL-60; assay type: cell-based; conditions: Homo sapiens, HL-60 cells, 72 h
Experimental: The cells were prepared in the required fashion (suspension or adherent). The cells were initially washed once in the culture medium that they would be finally treated in. Following this 10 ml of the test medium was added and the cells. The mixture was pipetted gently several times.
The cells were counted and then the volume was spun down to the volume necessary for the total number of cells needed. The cells were then resuspended in the appropriate test medium to the desired concentration. In general, the final concentration of non-adherent cells was 2×10^5 cells/ml i.e. 10,000 cells per 50 μ1. Once the desired concentration had been reached, 50 µl of the cells were added to the appropriate wells and the cells were incubated for 72 h at 37° C.
CellTiter-Glo Luminescent Assay (Kit G7571—See Promega's Instruction Manual for Additional Details):
Both reagents were pre-warmed to RT. The buffer was thawed in a 37° C. water bath until it had just completely thawed. It was then left on a bench at RT for at least 30 min.
Following this the substrate and buffer were mixed together. To ensure that the substrate was dissolved, the mixture was inverted several times.
The cell culture plates were removed from the incubator and were then allowed to adjust to RT for at least 30 min.
Afterwards 40 μL of the reagent was added to 100 μL of the culture medium. […] The plates were then incubated for 10 min on the bench. The luminescence could then be read using a luminescence plate reader.

BRD-4 (Domain 1) = BRD-4 (Domain 1) (Homo sapiens (Human), UniProt O60885); assay: AlphaScreen BRD binding assay, BRD-4 (Domain 1); conditions: acetyl-histone H4 peptide 2.5 nM, protein 80 nM
Experimental: as §1, §2

BRD-4 (Domain 2) = BRD-4 (Domain 2) (Homo sapiens (Human), UniProt O60885); assay: AlphaScreen BRD binding assay, BRD-4 (Domain 2); conditions: acetyl-histone H4 peptide 2.5 nM, protein 80 nM
Experimental: as §1, §2

Sequence of BRD-2 (Domain 1) (P25440 74-180): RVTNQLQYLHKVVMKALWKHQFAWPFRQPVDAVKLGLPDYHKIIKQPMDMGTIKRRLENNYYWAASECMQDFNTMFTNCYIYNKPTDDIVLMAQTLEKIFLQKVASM
Sequence of BRD-2 (Domain 2) (P25440 344-453): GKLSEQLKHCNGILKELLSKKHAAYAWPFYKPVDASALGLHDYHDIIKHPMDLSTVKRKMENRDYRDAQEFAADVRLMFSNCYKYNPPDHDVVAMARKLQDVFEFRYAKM

Row | Structure (SMILES) | IC50 (BRD-2 (Domain 1)) [nM] | IC50 (BRD-2 (Domain 2)) [nM] | IC50 (HL-60) [nM] | IC50 (BRD-4 (Domain 1)) [nM] | IC50 (BRD-4 (Domain 2)) [nM]
1 | Cc1nnn2c1-c1ccccc1N(c1ccc(Cl)cc1)C[C@@H]2C [Example 13, 7-(4-chlorophenyl)-1,5-dimethyl-6,7-dihydro-5H-benzo[f][1,2,3]triazolo[1,5-d][1,4]diazepine] | < 100 | < 100 | < 1000 |  | 
2 | Cc1nnn2c1-c1ccc(C(=O)NCc3ccccc3)cc1N(c1ccc(Cl)cc1)CC2 [Example 37, N-benzyl-7-(4-chlorophenyl)-1-methyl-6,7-dihydro-5H-benzo[f][1,2,3]triazolo[1,5-d][1,4]diazepine-9-carboxamide] |  |  |  | < 100 | < 100
3 | Cc1nnn2c1-c1ccccc1N(c1ccc(Cl)cc1)CC2 [Example 11, 7-(4-chlorophenyl)-1-methyl-6,7-dihydro-5H-benzo[f][1,2,3]triazolo[1,5-d][1,4]diazepine] |  |  | 1000 to 5000 |  | 
4 | FC(F)c1nnn2c1-c1ccccc1N(c1ccc(Cl)cc1)CC2 [Example 29, 7-(4-chlorophenyl)-1-(difluoromethyl)-6,7-dihydro-5H-benzo[f][1,2,3]triazolo[1,5-d][1,4]diazepine] | > 1000 | 100 to 1000 |  | 100 to 1000 | 100 to 1000
5 | Cc1nnn2c1-c1ccc(Br)cc1N(c1ccc(Cl)cc1)CC2C (stereo not shown) [Example 14, 9-Bromo-7-(4-chlorophenyl)-1,5-dimethyl-6,7-dihydro-5H-benzo[f][1,2,3]triazolo[1,5-d][1,4]diazepine] |  |  | < 1000 |  | 
6 | Cc1nnn2c1-c1ccccc1N(c1ccccc1)CC2 [Example 5, 1-methyl-7-phenyl-6,7-dihydro-5H-benzo[f][1,2,3]triazolo[1,5-d][1,4]diazepine] |  |  |  | < 100 | < 100
7 | Cc1nnn2c1-c1ccccc1N(c1ccc(Cl)cc1)C[C@H]2C [Example 16, (5R)-7-(4-chlorophenyl)-1,5-dimethyl-6,7-dihydro-5H-benzo[f][1,2,3]triazolo[1,5-d][1,4]diazepine] | < 100 | < 100 | < 1000 |  | 

More lines, now with the values ahead:

Row | IC50 (BRD-2 (Domain 1)) [nM] | IC50 (BRD-2 (Domain 2)) [nM] | IC50 (HL-60) [nM] | IC50 (BRD-4 (Domain 1)) [nM] | IC50 (BRD-4 (Domain 2)) [nM] | Structure (SMILES)
8 |  |  |  | < 100 | < 100 | Cc1nnn2c1-c1ccc(C(O)C(F)(F)F)cc1N(c1ccc(Cl)cc1)CC2 (stereo not shown) [Example 50, 1-(7-(4-Chlorophenyl)-1-methyl-6,7-dihydro-5H-benzo[f][1,2,3]triazolo[1,5-d][1,4]diazepin-9-yl)-2,2,2-trifluoroethanol]
9 |  |  | < 1000 |  |  | Cc1nnn2c1-c1ccc(-c3cnc(N)nc3)cc1N(c1ccc(Cl)cc1)CC2 [Example 12, 5-(7-(4-chlorophenyl)-1-methyl-6,7-dihydro-5H-benzo[f][1,2,3]triazolo[1,5-d][1,4]diazepin-9-yl)pyrimidin-2-amine]
10 |  |  |  | < 100 | < 100 | Cc1nnn2c1-c1ccc(C#N)cc1N(c1ccc(Cl)cc1)CC2 [Example 47, 7-(4-chlorophenyl)-1-methyl-6,7-dihydro-5H-benzo[f][1,2,3]triazolo[1,5-d][1,4]diazepine-9-carbonitrile]
11 | < 100 | < 100 |  | < 100 | < 100 | CON(C)C(=O)c1ccc2c(c1)N(c1ccc(Cl)cc1)CCn1nnc(C)c1-2 [Example 48, 7-(4-Chlorophenyl)-N-methoxy-N, 1-dimethyl-6,7-dihydro-5H-benzo[f][1,2,3]triazolo[1,5-d][1,4]diazepine-9-carboxamide]
12 | < 100 | < 100 |  | < 100 | < 100 | Cc1nnn2c1-c1ccc(C(=O)NO)cc1N(c1ccc(Cl)cc1)CC2 [Example 44, 7-(4-Chlorophenyl)-N-hydroxy-1-methyl-6,7-dihydro-5H-benzo[f][1,2,3]triazolo[1,5-d][1,4]diazepine-9-carboxamide]
13 |  |  |  | < 100 | < 100 | Cc1nnn2c1-c1ccc(C(N)=O)cc1N(c1ccc(Cl)cc1)CC2 [Example 42, 7-(4-chlorophenyl)-1-methyl-6,7-dihydro-5H-benzo[f][1,2,3]triazolo[1,5-d][1,4]diazepine-9-carboxamide]
